Measurements taken from patent publication US8084449B2, “Dual pharmacophores—PDE4-muscarinic antagonistics” (Glaxo Group Limited, priority 2008, dated 2011).

Assays:
[1] = tested on: human M1, M2 and M3 ACh receptors stably expressed in CHO cells; assay: Calcium mobilization (FLIPR) IC50 determination for antagonists: inhibition of ACh induced muscarinic receptor activation; assay type: cell-based; settings: EC80 concentration of ACh, active if IC50 of between 33 uM and 10 nM or less, receptor subtype not specified for the statement
From the text: Studies to determine the effectiveness of antagonists to cause blockade of functional intracellular calcium fluxes following agonist (ACh) treatment of cloned human receptors. This system is used for characterizations of antagonist-receptor interactions using four distinct variations of the FLIPR methodology: (a) potency: IC50 determination, (b) potency: pA2 determination, (c) reversibility of antagonist-receptor interaction, or (d) confirmation of no functional agonist activity.
Cell Source The human M1-M3 receptors are cloned and stably expressed in Chinese Hamster Ovary (CHO) cells. The M2 receptors are co-expressed with the chimeric G protein, Gqi5.
Method of Culture: CHO-M1, CHO-Gqi5-M2 and CHO-M3 cells are cultured to confluence at 37° C. in a humidified incubator with 5% CO2/95% air. […] The emitted fluorescence from all 96 wells is measured simultaneously using a cooled CCD camera. […]
Cell plating: A microtiter plate based calcium mobilization FLIPR (Fluorometric Imaging Plate Reader, Molecular Devices, Sunnyvale Calif., [Schroeder K S, Neagle, B D. FLIPR: a new instrument for accurate, high throughput optical screening. J. Biomol. Screen. 1996; 1:75.]) assay is used for the functional characterization of compounds against M1, M2 (w/Gqi5) and M3 ACh receptors stably expressed in CHO cells. […]

melting point | Compound | IC50 (compound pretreatment concentration which inhibits 50% of the ACh induced response), activity rating [1]
146 to 147 °C | NC(=O)c1ccc(Cl)c(Br)c1 | 
 | CCc1nc2c(cnn2CC)c(NC2CCOCC2)c1CNC(=O)c1cccc(C(=O)NCc2ccc(OC)c(-c3cccc(CN4CCN[C@@H](C)C4)c3)c2)n1 [Example 157, N-{[1,6-Diethyl-4-(tetrahydro-2H-pyran-4-ylamino)-1H-pyrazolo[3,4-b]pyridin-5-yl]methyl}-N′-[(6-(methyloxy)-3′-{[(3S)-3-methyl-1-piperazinyl]methyl}-3-biphenylyl)methyl]-2,6-pyridinedicarboxamide] | most active
